Patent US20020173515A1, “Antiproliferative substituted 5-thiapyrimidinone and 5-selenopyrimidinone compounds” (priority 1992, published 2002)

Tests used:
[1] = target: T1, GARFT domain of the human enzyme (Homo sapiens, UniProt P22102); assay: GARFT inhibition constants, Method I (Cleland; spectrophotometric assay of Young et al.); format: biochemical; settings: Method I (Examples 2-5 and 10); 22° C, 20 mM Hepes pH 7.5, 20 μM GAR, variable 10-formyl-5,8-dideazafolate
T1 construct: The GARFT domain of the human enzyme was used
T1 sequence (P22102 810-1010 limits assumed): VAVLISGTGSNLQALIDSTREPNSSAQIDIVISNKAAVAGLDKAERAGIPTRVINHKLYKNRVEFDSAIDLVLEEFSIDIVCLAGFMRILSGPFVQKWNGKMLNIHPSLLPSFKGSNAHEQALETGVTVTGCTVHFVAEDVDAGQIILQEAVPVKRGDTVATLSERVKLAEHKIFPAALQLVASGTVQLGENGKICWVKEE
Method: Determination of Inhibition Constants for GARFT
The GARFT domain of the human enzyme was used. […] The assay mix contained 20 mM Hepes pH 7.5, 20 μM GAR, and variable amounts of 10-formyl-5,8-dideazafolate and inhibitor. For each inhibitor five concentrations were used ranging from 0 to approximately 3Ki. The data were plotted as the […] versus the reciprocal of the 10-formyl-5,8-dideaza-folate concentration. The inhibition constants were measured from a replot of the slopes of these lines obtained for each concentration of inhibitor versus the inhibitor concentration.

L1210 murine leukemia = assay: Cellular growth inhibition, L1210 (MTT-tetrazolium reduction); format: cell-based; settings: Mus musculus, L1210, 72 h; 3 days continuous exposure; read-out: Cell Line, IC50 L1210
Method: (§1) Cellular growth in the presence of the compounds according to the present invention was assessed using two cell lines: the L1210 murine leukemia (ATCC CCL 219) and CCRF-CEM, a human lymphoblastic leukemia line of T-cell origin (ATCC CCL 119). Both lines were maintained in RPMI 1640 medium containing 5% heat-inactivated fetal bovine serum without antibiotics.
(§2) Growth was measured over 3 days (L1210) or 5 days (CCRF-CEM) of continuous exposure to varying concentrations of each test compound added 4 hours after initial cell plating by the MITT-tetrazolium reduction assay of Mosmann T. J. (Immunol. meth. 65, 55-63 (1983)), modified according to Alley et al. (Cancer Res. 48, 589-601 (1988)). Water insoluble derivatives were dissolved in DMSO and diluted to a final concentration of 0.5% solvent in cell cultures.

L1210-C192 = assay: Cellular growth inhibition, L1210-C192; format: cell-based; settings: read-out: Cell Line, IC50 L1210-C192
[2] = system: CCRF-CEM, a human lymphoblastic leukemia line of T-cell origin; assay: Cellular growth inhibition, CCRF-CEM (MTT-tetrazolium reduction); format: cell-based; settings: 120 h, 5 days continuous exposure
Method: as §1, §2

[3] = target: T2, partially purified AICARFT from cultured CEM cells (Homo sapiens, UniProt P31939); assay: AICARFT inhibition constants (modified Black et al. assay); format: biochemical; settings: 37° C, 50 mM Tris-Cl pH 7.4, 50 μM racemic FTHF
T2 construct: partially purified AICARFT from cultured CEM cells; endogenous in cells; host or cells: CEM cells (partially purified enzyme preparation)
T2 sequence (P31939 whole entry): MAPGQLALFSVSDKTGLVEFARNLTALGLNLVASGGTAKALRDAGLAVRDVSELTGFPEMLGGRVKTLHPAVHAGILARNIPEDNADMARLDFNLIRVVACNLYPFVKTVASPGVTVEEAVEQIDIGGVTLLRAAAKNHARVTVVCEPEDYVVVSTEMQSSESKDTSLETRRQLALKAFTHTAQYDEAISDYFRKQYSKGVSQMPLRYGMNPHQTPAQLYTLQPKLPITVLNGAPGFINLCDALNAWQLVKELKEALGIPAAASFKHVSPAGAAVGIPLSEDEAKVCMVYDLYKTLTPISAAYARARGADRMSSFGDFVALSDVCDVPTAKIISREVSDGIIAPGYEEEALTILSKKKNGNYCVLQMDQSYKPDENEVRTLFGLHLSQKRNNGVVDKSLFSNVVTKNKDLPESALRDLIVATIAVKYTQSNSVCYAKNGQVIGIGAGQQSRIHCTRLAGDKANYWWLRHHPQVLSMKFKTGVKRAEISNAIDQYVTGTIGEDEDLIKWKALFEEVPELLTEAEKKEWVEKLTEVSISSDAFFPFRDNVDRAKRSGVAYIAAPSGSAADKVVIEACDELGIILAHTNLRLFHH
Method: Determination of Inhibition Constants for AICARFT
The assay method of Black et al. (Anal Biochem 90, 397-401 (1978)) was modified and used as described below. Buffers were degassed under vacuum prior to the preparation of substrate solutions and degassed buffer was used in the reaction mixtures. Reaction mixtures contained partially purified AICARFT from cultured CEM cells, inhibitor, 100 μM […] (5-aminoimidazole-4-carboxamide-ribonucleotide), 50 μM of a racemic mixture of N10-formyl-tetrahydrofolate (FTHF), 25 mM KCl, 50 mM 2-mercaptoethanol and 50 mM Tris-Cl pH 7.4. The reaction was initiated with the addition of the enzyme solution to a final concentration of 0.1 mg/mL and the reaction followed by monitoring the increase in absorbance at 298 nm at 37° C. (ε298=28 mM cm^−1).
AICARFT inhibition constants (Ki) were determined from the dependence of the steady-state catalytic rate upon inhibitor and substrate concentration. The type of inhibition observed and the determination of Ki was performed as described above for inhibitors of GARFT with the appropriate substrates and the AICARFT assay. Treatment of experimental data was essentially the same.

[4] = target: T3, catalytic domain of the human GARFT (Homo sapiens, UniProt P22102); assay: GARFT inhibition constants, Method II (modified Young et al. assay); format: biochemical; settings: Method II (Examples 6, 7, 8 and 9); 20° C, 50 mM Tris-Cl pH 7.5, 20 μM GAR, 10 or 20 μM FDDF
T3 construct: Reaction mixtures contained the catalytic domain of the human GARFT
T3 sequence (P22102 810-1010 limits assumed): T1 sequence (P22102 810-1010 limits assumed)
Method: Reaction mixtures contained the catalytic domain of the human GARFT, inhibitor, 20 μM glycinamide ribonucleotide (GAR), 10 or 20 μM N^10-formyl-5,8-dideazafolate (FDDF), and 50 mM Tris-Cl at pH 7.5.
GARFT constants (Ki) were determined from the dependence of the steady-state catalytic rate upon inhibitor and substrate concentration. […] The michaelis constant Km, was determined independently by the dependence of the catalytic rate upon FDDF concentration. Data for both the Km and Ki determinations were fitted by non-linear methods to the Michaelis equation or the Michaelis equation for competitive inhibition as appropriate.

Compound	Ki [1]	IC50 (L1210 murine leukemia)	IC50 (L1210-C192)	IC50 [2]	Ki [3]	melting point	Ki [4]
Nc1nc(N)c(SCCSc2ccc(C(=O)N[C@@H](CCC(=O)O)C(=O)O)cc2)c(=O)[nH]1 [Example 4, N-[(4-[2-([2,6-diamino-4(3H)-oxopyrimidin-5-yl]thio)ethyl]thio)benzoyl]-S-glutamic Acid]	110 nM	110 nM	10000 nM	130 nM			
Nc1nc(N)c(SCCCc2ccc(C(=O)N[C@@H](CCC(=O)O)C(=O)O)cc2)c(=O)[nH]1 [Example 2, N-(4-(3-[2,6-diamino-4(3H)-oxopyrimidin-5-yl)thio]propyl)benzoyl-(S)-glutamic Acid]		79 nM	5000 nM	65 nM			
Nc1nc(N)c(SCCCc2ccc(C(=O)N[C@@H](CCC(=O)O)C(=O)O)s2)c(=O)[nH]1 [Example 3, N-[2-(5-[3-([2,6-diamino-4(3H)-oxopyrimidin-5-yl]thio)propyl]-thienoyl)]-(S)-glutamic Acid]	35 nM	40 nM	10500 nM	49 nM			
Cc1cc(CCCSc2c(N)nc(N)[nH]c2=O)sc1C(=O)N[C@@H](CCC(=O)O)C(=O)O [Example 6]		120 nM	> 25000 nM	68 nM			
Nc1nc(N)c(SCCc2ccc(C(=O)N[C@@H](CCC(=O)O)C(=O)O)cc2)c(=O)[nH]1 [Example 10]	30000 nM	1500 nM	12000 nM	1200 nM	60000 nM	177 to 181 °C	
Nc1nc(N)c(SCC2CCc3cc(C(=O)N[C@@H](CCC(=O)O)C(=O)O)sc3C2)c(=O)[nH]1 (stereo partly drawn) [Example 8, N-(6-[([2,6-diamino-4(3H)oxopyrimidin-5-yl]-thio)methyl]-4,5,6,7-tetrahydrobenzothieno-2-yl)-S-glutamic Acid]		10 nM	9000 nM	8 nM			
Nc1nc(N)c(SCCc2ccc(C(=O)N[C@@H](CCC(=O)O)C(=O)O)s2)c(=O)[nH]1 [Example 9, N-(5-[2-([2,6-Diamino-4(3H)-oxopyrimidin-5-yl]thio)ethyl]thieno-2-yl)-L-glutamic Acid]		250 nM	22000 nM	620 nM	35000 nM	228 to 230 °C (dec.)	2000 nM
Cc1cc(C(=O)N[C@@H](CCC(=O)O)C(=O)O)sc1CCCSc1c(N)nc(N)[nH]c1=O [Example 7]		89 nM	28000 nM	99 nM			
Nc1nc(N)c(SCCNc2ccc(C(=O)N[C@@H](CCC(=O)O)C(=O)O)cc2)c(=O)[nH]1 [Example 5, N-[4-(N-[2-([2,6-diamino-4(3H)-oxopyrimidin-5-yl]thio)ethyl]amino)benzoyl]-S-glutamic Acid]	88 nM	90 nM	4200 nM	80 nM			
